Measured values: ChEMBL document CHEMBL3098042, “New carbocyclic nucleoside analogues with a bicyclo[2.2.1]heptane fragment as sugar moiety; synthesis, X-ray crystallography and anticancer activity” (2014)

Columns and labels:
[1] = Anticancer activity against human U937 cells assessed as decrease in uridine incorporation at 30 uM relative to control; format: functional, U-937; parameters: scale not given: the % may be the effect or the level left
[2] = tested on: NCI-H322M; assay: Growth inhibition of human NCI-H322M cells at 10^-5 M relative to control; format: functional; details: values are per cent of control
[3] = Growth inhibition of human OVCAR5 cells at 10^-5 M relative to control; format: functional; details: OVCAR-5, values are per cent of control
[4] = tested on: CCRF-CEM; assay: Growth inhibition of human CCRF-CEM cells at 10^-5 M relative to control; format: functional; details: values are per cent of control
[5] = tested on: HCT-15; assay: Growth inhibition of human HCT15 cells at 10^-5 M relative to control; format: functional; details: values are per cent of control
[6] = tested on: MDA-MB-468; assay: Growth inhibition of human MDA-MB-468 cells at 10^-5 M relative to control; format: functional; details: values are per cent of control
[7] = tested on: IGROV-1; assay: Growth inhibition of human IGROV1 cells at 10^-5 M relative to control; format: functional; details: values are per cent of control
[8] = tested on: CAKI-1; assay: Growth inhibition of human CAKI-1 cells at 10^-5 M relative to control; format: functional; details: values are per cent of control
[9] = tested on: PC-3; assay: Growth inhibition of human PC3 cells at 10^-5 M relative to control; format: functional; details: values are per cent of control
[10] = tested on: MCF7; assay: Growth inhibition of human MCF7 cells at 10^-5 M relative to control; format: functional; details: values are per cent of control
[11] = tested on: NCI-H522; assay: Growth inhibition of human NCI-H522 cells at 10^-5 M relative to control; format: functional; details: values are per cent of control
[12] = tested on: MOLT-4; assay: Growth inhibition of human MOLT4 cells at 10^-5 M relative to control; format: functional; details: values are per cent of control
[13] = tested on: HCT-116; assay: Growth inhibition of human HCT116 cells at 10^-5 M relative to control; format: functional; details: values are per cent of control
[14] = Growth inhibition of human NCI-ADR-RES cells at 10^-5 M relative to control; format: functional; details: values are per cent of control
[15] = tested on: SK-MEL-5; assay: Growth inhibition of human SK-MEL-5 cells at 10^-5 M relative to control; format: functional; details: values are per cent of control
[16] = tested on: SNB-75; assay: Growth inhibition of human SNB75 cells at 10^-5 M relative to control; format: functional; details: values are per cent of control
[17] = Growth inhibition of human UO31 cells at 10^-5 M relative to control; format: functional; details: UO-31, values are per cent of control
[18] = tested on: T47D; assay: Growth inhibition of human T47D cells at 10^-5 M relative to control; format: functional; details: values are per cent of control
[19] = tested on: NCI-H226; assay: Growth of human NCI-H226 cells at 10^-5 M relative to control
[20] = tested on: HL-60(TB); assay: Growth inhibition of human HL-60(TB) cells at 10^-5 M relative to control; format: functional; details: values are per cent of control
[21] = tested on: LOX IMVI; assay: Growth inhibition of human LOXIMVI cells at 10^-5 M relative to control; format: functional; details: values are per cent of control
[22] = Growth inhibition of human RXF393 cells at 10^-5 M relative to control; format: functional; details: RXF 393, values are per cent of control
[23] = tested on: K562; assay: Growth inhibition of human K562 cells at 10^-5 M relative to control; format: functional; details: values are per cent of control
[24] = tested on: SR; assay: Growth inhibition of human SR cells at 10^-5 M relative to control; format: functional; details: values are per cent of control

Structure (SMILES) | growth, % of control at 10 µM [2] | growth, % of control at 10 µM [3] | growth, % of control at 10 µM [4] | growth, % of control at 10 µM [5] | growth, % of control at 10 µM [6] | growth, % of control at 10 µM [8] | growth, % of control at 10 µM [9] | growth, % of control at 10 µM [10] | growth, % of control at 10 µM [12] | growth, % of control at 10 µM [13] | growth, % of control at 10 µM [14] | growth, % of control at 10 µM [15] | growth, % of control at 10 µM [16] | growth, % of control at 10 µM [17] | growth, % of control at 10 µM [18] | growth, % of control at 10 µM [20] | growth, % of control at 10 µM [21] | growth, % of control at 10 µM [22] | growth, % of control at 10 µM [23] | growth, % of control at 10 µM [24] | further results
O=c1[nH]c(=O)n([C@H]2C[C@@H]3[C@@H](/C=C/[C@@H](O)COc4cccc(Cl)c4)[C@H](O)C[C@@H]3O2)cc1I |  |  |  |  |  |  |  |  |  |  |  |  |  |  |  |  |  |  |  |  | Activity [1]: 64%
Nc1ncnc2c1ncn2[C@H]1C[C@H]2[C@H](CO)[C@@H]1C[C@@H]2Cl | 102% | 90.1% | 90.1% | 97.5% | 103% | 86.9% | 99.3% | 100% | 85.6% | 89.2% | 103% | 96.5% | 103% | 94.2% | 102% | 95.8% | 91.8% | 106% | 97.1% | 88.9% | growth, % of control at 10 µM [7]: 103%; growth, % of control at 10 µM [11]: 98.7%; growth, % of control at 10 µM [19]: 110%
CN(C)c1ncnc2c1ncn2[C@H]1C[C@H]2[C@H](CO)[C@@H]1C[C@@H]2Cl | 96.8% | 90.3% | 86.7% | 100% | 102% | 95.1% | 93.3% | 94.9% | 78.9% | 101% | 98.7% | 99.5% | 99.3% | 79.1% | 96.8% | 98.2% | 96.8% | 109% | 91% | 81.4% | growth, % of control at 10 µM [7]: 101%; growth, % of control at 10 µM [11]: 88.3%; growth, % of control at 10 µM [19]: 101%
CN(C)c1ncnc2c1ncn2[C@H]1C[C@@H]2C=C[C@H]1[C@H]2CO | 104% | 96.5% | 87.9% | 98.9% | 98.2% | 97.9% | 92% | 98.7% | 79.7% | 94.8% | 99.5% | 98.3% | 109% | 82.7% | 104% | 88.8% | 95.8% | 109% | 90% | 82.2% | growth, % of control at 10 µM [7]: 98.2%; growth, % of control at 10 µM [11]: 98.5%; growth, % of control at 10 µM [19]: 109%
OC[C@H]1[C@@H]2C[C@H](n3cnc4c(NC5CC5)ncnc43)[C@H]1C[C@@H]2Cl | 90% | 95% | 89.5% | 96.5% | 100% | 102% | 104% | 98.5% | 84.8% | 96.5% | 101% | 101% | 97.8% | 85.8% | 89.6% | 89% | 89.6% | 110% | 95.8% | 86.6% | growth, % of control at 10 µM [7]: 90.6%; growth, % of control at 10 µM [11]: 88.7%; growth, % of control at 10 µM [19]: -27.2%
OC[C@H]1[C@@H]2C[C@H](n3cnc4c(NC5CCCC5)ncnc43)[C@H]1C[C@@H]2Cl |  | 98.8% | 83.7% | 93.7% | 102% | 99% | 95.3% | 97.2% | 87.1% | 99.8% | 103% | 95.7% | 88% | 99.6% | 94.1% | 118% | 89.7% | 104% | 93.1% | 86.5% | growth, % of control at 10 µM [11]: 101%
OC[C@H]1[C@@H]2C[C@H](n3cnc4c(NCCc5ccccc5)ncnc43)[C@H]1C[C@@H]2Cl | 99.5% | 104% | 87.6% | 81.7% | 89.4% | 96% | 89.1% | 89.9% | 83.3% | 101% | 88.2% | 73.9% | 106% | 73.8% | 86.8% | 120% | 92.7% | 87% | 91.1% | 84.1% | growth, % of control at 10 µM [7]: 105%
CCN(CC)CCCNc1ncnc2c1ncn2[C@H]1C[C@H]2[C@H](CO)[C@@H]1C[C@@H]2Cl | 93.2% | 99.7% | 90.2% | 101% | 101% | 93% | 102% | 95.9% | 83.6% | 98.5% | 103% | 102% | 99.2% | 80.6% | 104% | 90.5% | 96.9% | 111% | 106% | 85.8% | growth, % of control at 10 µM [7]: 112%; growth, % of control at 10 µM [11]: 93.2%; growth, % of control at 10 µM [19]: 105%
CN1CCN(c2ncnc3c2ncn3[C@H]2C[C@H]3[C@H](CO)[C@@H]2C[C@@H]3Cl)CC1 | 92.7% | 96.4% | 90.5% | 97.7% | 101% | 98.4% | 96.2% | 84% | 83.4% | 101% | 100% | 99.4% | 107% | 78.5% | 100% | 86% | 98% | 111% | 107% | 81% | growth, % of control at 10 µM [7]: 92.7%; growth, % of control at 10 µM [19]: 102%
OC[C@H]1[C@@H]2C[C@H](n3cnc4c(N5CCOCC5)ncnc43)[C@H]1C[C@@H]2Cl | 100% | 93% | 84.9% | 93% | 110% | 87.2% | 98.5% | 99.9% | 81.1% | 89.6% | 99% | 99.8% | 85.6% | 76.9% | 100% | 91.9% | 95.8% | 113% | 90.7% | 82.3% | growth, % of control at 10 µM [7]: 92.3%; growth, % of control at 10 µM [11]: 94.5%; growth, % of control at 10 µM [19]: 108%
